{"source": "patent US20120039816A1", "about": "“USE OF 7-CHLORO-N,N,5-TRIMETHYL-4-OXO-3-PHENYL-3,5-DIHYDRO-4H-PYRIDAZINO[4,5-B] INDOLE-1-ACETAMIDE AS A BIOMARKER OF PERIPHERAL BENZODIAZEPINE RECEPTOR LEVELS” (SANOFI-AVENTIS, priority 2008, published 2012)", "key": {"PBR [1]": {"biological_target": "T1, PBR (Homo sapiens, UniProt P30536)", "T1 sequence (P30536 whole entry, species assumed)": "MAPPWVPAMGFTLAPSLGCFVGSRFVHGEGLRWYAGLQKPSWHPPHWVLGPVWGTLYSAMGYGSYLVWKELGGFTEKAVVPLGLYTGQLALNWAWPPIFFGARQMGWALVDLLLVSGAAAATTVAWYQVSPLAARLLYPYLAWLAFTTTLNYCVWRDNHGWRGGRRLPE", "settings": "PET ligand; cited from earlier work"}, "[2]": {"biological_target": "T2, PBR (peripheral benzodiazepine receptor) (Rattus norvegicus, UniProt P16257)", "T2 construct": "lesioned striatum of AMPA-injected rats (the region in which PBR expression is induced); from tissue; host or cells: brain (AMPA-lesioned and intact striatum) of Wistar rats, imaged in vivo or cut into 20 µm sections", "test": "MicroPET imaging in AMPA-lesioned rat model of neuroinflammation", "assay_type": "in vivo, Wistar rats", "experimental": "Wistar rats (average body weight 300 g, centre d'Élevage René Janvier, France) were kept in thermoregulated, humidity controlled facilities under a 12 h/12 h light/dark cycle (light on between 7 h AM and 7 h PM) and were allowed free access to food and water. […] AMPA (0.5 μL) was injected into the right striatum (Bregma+0.7 mm, from sagittal suture: 2.7 mm, depth from brain surface: 5.5 mm).\n(§1) MicroPET imaging was performed 7 days post-AMPA injection in rats and in 11-12 month old transgenic mice. In both mice and rats, anaesthesia was induced by isoflurane 5%, and thereafter maintained by 2-2.5% of isoflurane in a mixture of 70%/30% […]. […] Mice were placed on a bed equipped with an anaesthetic mask allowing heating of the air flow and the rectal temperature was monitored using the Homeothermic Blanket Control Unit.\n(§2) In rats, radiolabelled compounds and unlabelled ligands were injected in the caudal vein with the use of 24 gauge catheter. Radiolabelled compounds were injected concomitantly at the start of the PET acquisition and unlabelled compounds were injected 20 min after injection of radiotracers. PET data were acquired for 80 min. In mice, radiolabelled compounds were injected in the caudal vein using 28 gauge needles immediately before the PET scan initiation. PET data were acquired for 60 min.\n(§3) PET image analysis was performed using ASIPro VM™ (CTI Concorde Microsystems' Analysis Tools and System Setup/Diagnostics Tool) and Brainvisa/Anatomist (http://brainvisa.info/)."}, "PBR [3]": {"biological_target": "T3, PBR (Mus musculus, UniProt P50637)", "T3 construct": "from tissue; host or cells: brain of PS1 and APPxPS1 transgenic mice, imaged in vivo at 11-12 months or cut into sections at 20-23 months", "test": "MicroPET imaging in APP×PS1 and PS1 transgenic mice", "assay_type": "in vivo", "settings": "for uptake in APP×PS1 vs wild type PS1: whole brain, 11-12 month old mice, PET", "text": "Generation and characterization of single PS1M146L (PS1) and double APP751SL×PS1M146L (APP×PS1) transgenic mice were achieved, as described previously (Blanchard, V. et al. (2003) Exp. Neurol. 184: 247-263). In these animals APP is expressed at a high level in all cortical neurons under the control of the Thy-1 promoter. Human PS1 with the M146L mutation is expressed under the control of the HMG-CoA reductase promoter. […] Both single PS1 and double APP×PS1 mice, provided by Sanofi-Aventis, were used for PET imaging at the age of 11-12 months and autoradiography at 20-23 months.\nas §1, §2, §3"}, "PBR [4]": {"biological_target": "T1, PBR", "settings": "in vitro and in vivo; cited from earlier work"}, "[5]": {"test": "Metabolite analysis in rat blood and brain", "assay_type": "in vivo, Wistar rats", "experimental": "A blood sample was collected and plasma isolated by centrifugation (5 min, 3000 rpm). Plasma proteins were precipitated from 400 μL of serum by addition of 400 μL of acetonitrile. After centrifugation (5 min, 3000 rpm), the supernatant was injected onto the HPLC column. Rat brains were removed and hemispheres were separated. Homogenisation by sonication was performed in 1 mL of acetonitrile per hemisphere. After a rapid centrifugation, the supernatant was separated from the pellet and concentrated under reduced pressure before injection onto the HPLC (see radiochemistry section for HPLC conditions)."}, "PBR [6]": {"tested_on": "PBR", "test": "PET imaging in quinolinic acid primate model of neuroinflammation", "assay_type": "in vivo, Cynomolgus macaques (Macaca fascicularis)", "experimental": "Cynomolgus macaques (Macaca fascicularis) weighing 4-5 kg were housed in thermoregulated, humidity controlled facilities under a 12 h/12 h light/dark cycle (light on between 7 h a.m. and 7 h p.m.) and were allowed free access to food and water. Neuroinflammation was induced by local sterotaxic injections of quinolinic acid (quinolinic acid, Sigma, St. Louis, Mo.; dissolved in 0.1 M PBS, pH 7.2) into the primate striatum (1 injection site into caudate and 2 injection sites into the putamen) during two different surgical interventions where quinolinic acid was injected into one hemisphere on day 1 and the second hemisphere 2 weeks or 7 months later (FIGS. 8 and 9). During each surgical session the animals received 60 nmol of quinolinic acid distributed over three different striatal sites, one 5 μL site in the caudate and two 10 μL sites in the putamen using a 10 μL-Hamilton syringe attached to a 26-gauge needle. […] The excitotoxin was injected at a rate of 0.1 μL/min and the injection syringe left in place for an additional 5 min to avoid backflow of the toxin. Throughout the surgery, the primate temperature was maintained normothermic (rectal temperature, 36° C.±0.6° C., mean±SD). After removing the needle, the skin was sutured and the animals were allowed to recover from anesthesia and returned to their cages when fully awake.\nImaging sessions were performed before and at various times after quinolinic acid injection (24 hrs, 48 hrs, 9 days, 16 days and 7 months post lesion).\nOne hour before PET imaging, animals were anaesthetized by intramuscular injection of a ketamine/xylazine mixture (15 mg/kg/1.5 mg/kg) and intubated. Catheters were then placed in a saphenous vein for radiotracer injection and in a femoral artery for blood sampling. Animals were maintained anaesthetized by an intravenous injection of propofol (Diprivan® 1%; 0.05 mg·kg^−1·min^−1).\nTo ensure correct positioning of the animal in the apparatus, the animal's head was secured in a home-made stereotactic frame. PET scans were performed using the high-resolution Focus micro-PET (CTI-Siemens, Knoxville, Tenn.), which acquires 95 contiguous planes simultaneously. For attenuation correction, a transmission scan was first performed using a ^68Ge rotating rod source.\nas §3"}, "PBR [7]": {"biological_target": "PBR (Rattus norvegicus, UniProt P16257)", "settings": "excess unlabelled PK11195 (23 μM) or A (22 μM), FIG. 5"}, "[8]": {"settings": "systemic, large excess (1 mg/kg), 30 min after radiotracer injection (FIG. 9)"}}, "data": [{"smiles": "CC[C@@H](C)N([11CH3])C(=O)c1cc2ccccc2c(-c2ccccc2Cl)n1", "note": "[[^11C]PK11195, (R)—N—[^11C]Methyl-N-(1-methylpropyl)-1-(2-chlorophenyl)isoquinoline-3-carboxamide]", "values": [{"measurement": "brain uptake", "setting": "PBR [1]", "value": "relatively low brain uptake"}, {"measurement": "non-specific binding", "setting": "PBR [1]", "value": "high non-specific binding"}, {"measurement": "signal to noise ratio", "setting": "PBR [1]", "value": "poor signal to noise ratio"}, {"measurement": "R1", "setting": "[2]; AMPA-injected rats, PET", "value": "1.10±0.05"}, {"measurement": "binding potential (BP)", "setting": "[2]; AMPA-injected rats, PET", "value": "0.66±0.15"}, {"measurement": "uptake in APP×PS1 vs wild type PS1", "setting": "PBR [3]", "value": "not significantly higher"}]}, {"smiles": "CN(C)C(=O)Cc1nn(-c2ccccc2)c(=O)c2c1c1ccc(Cl)cc1n2C", "note": "[A, 7-chloro-N,N,5-trimethyl-4-oxo-3-phenyl-3,5-dihydro-4H-pyridazino[4,5-b]indole-1-acetamide]", "values": [{"measurement": "affinity for the PBR", "setting": "PBR [4]", "value": "high affinity"}]}, {"smiles": "CN(C)C(=O)Cc1nn(-c2ccccc2)c(=O)c2c1c1ccc(Cl)cc1n2[11CH3]", "note": "[[^11C]-A, 7-Chloro-N,N-dimethyl-5-[^11C]methyl-4-oxo-3-phenyl-3,5-dihydro-4H-pyridazino[4,5-b]indole-1-acetamide]", "values": [{"measurement": "metabolites present in brain", "setting": "[5]; rats, 10, 20 and 30 min after [^11C]-A injection (FIG. 10)", "value": "essentially detected the parent compound only"}, {"measurement": "metabolites present in blood and plasma", "setting": "[5]; rats, 10 and 20 min after [^11C]-A injection (FIG. 10)", "value": "essentially detected the parent compound only"}, {"measurement": "uptake in lesioned striatum", "setting": "PBR [6]; 7 months after excitotoxin injection, right striatum", "value": "returned to baseline levels"}, {"measurement": "uptake in lesioned right striatum compared to contralateral non-injected striatum and control brain regions (cerebellum, prefrontal cortex)", "setting": "PBR [6]; 24 hrs after excitotoxin injection (FIG. 8)", "value": "significantly higher"}, {"measurement": "increase in uptake in lesioned striatum", "setting": "PBR [6]; 48 hrs after excitotoxin injection, left hemisphere", "value": "could still be visualized"}, {"measurement": "time window of increased uptake after lesion", "setting": "PBR [6]; early phase of neuroinflammation (FIG. 9)", "value": "can be visualised from 24 hrs up to 16 days"}, {"measurement": "uptake in contralateral non-injected striatum", "setting": "PBR [6]; same level as brain regions of a non-injected primate (FIG. 8)", "value": "remained stable"}, {"measurement": "uptake in whole brain (cerebellum excluded) compared to [^11C]PK11195", "setting": "PBR [3]; APP×PS1 and wild type PS1 transgenic mice, 11-12 months (FIG. 6)", "value": "higher"}, {"measurement": "uptake in APP×PS1 vs wild type PS1", "setting": "PBR [3]", "value": "not significantly higher"}]}, {"smiles": "CCC(C)N(C)C(=O)c1cc2ccccc2c(-c2ccccc2Cl)n1", "note": "(stereo not drawn) [PK11195]", "values": [{"measurement": "effect of unlabelled compound on [^11C]-A binding in the controlateral side", "setting": "[2]; 1 mg/kg i.v., 20 min post [^11C]-A injection", "value": "small increase"}, {"measurement": "effect of unlabelled compound on brain uptake of [^11C]-A in lesioned striatum", "setting": "[2]; 1 mg/kg i.v., 20 min post [^11C]-A injection (FIG. 3, 4)", "value": "significantly reduced"}, {"measurement": "effect of excess unlabelled compound on [^11C]-A binding in lesioned striatum", "setting": "PBR [6]; [8]", "value": "specific displacement"}, {"measurement": "effect of excess unlabelled compound on [^11C]-A binding in non-lesioned control brain regions", "setting": "PBR [6]; [8]", "value": "no noticeable changes"}, {"measurement": "effect of excess unlabelled ligand on ipsilateral to contralateral ratio of [^11C]-A binding", "setting": "PBR [7]", "value": "abolished"}]}]}
